Experimental findings from PubChem BioAssay (NCI) are described below.

The structures appear in SMILES notation.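 Five compound concentrations were applied to cells in 96-well plates for 48 hours; endpoints were derived by simple linear interpolation of the resulting dose-response curve. TGI: concentration producing complete growth inhibition.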

Test systems include SW-620 colon; UACC-257 melanoma; KM12 colon; SNB-19 CNS; LOX IMVI melanoma; MALME-3M melanoma; SF-539 CNS; SN12C renal; RPMI-8226 leukemia; COLO 205 colon.
What all share (experiment): NCI-60 cell line screen, 48 h

As for `CCO/C=N/C1=C(C#N)C(c2ccc(OC)c(OC)c2)c2c(-c3ccccc3)nn(-c3ccccc3)c2O1` (stereo not given), the TGI in the assay with SW-620 colon is 29.2 µM; with UACC-257 melanoma, above 100 µM; in the assay on KM12 colon it was 22.1 µM; in the assay with SNB-19 CNS it was 29.6 µM; in the assay with LOX IMVI melanoma, 31 µM; in the assay with MALME-3M melanoma it was 51.2 µM. The TGI is 33.7 µM with SF-539 CNS, 38.9 µM in the assay with SN12C renal, above 100 µM in the assay on RPMI-8226 leukemia and 27.1 µM with COLO 205 colon.

Take `O=C(c1ccccc1)c1cc(-c2ccccc2)c(-c2ccccc2)[nH]c(=O)c1=O`: the TGI with SW-620 colon, with UACC-257 melanoma, in the assay on KM12 colon, with SNB-19 CNS, in the assay on LOX IMVI melanoma and in the assay with MALME-3M melanoma was above 100 µM in each case. Also, the TGI is above 100 µM with SF-539 CNS, above 100 µM with SN12C renal, 60 µM in the assay on RPMI-8226 leukemia and 61.5 µM with COLO 205 colon.

`C=CCn1c(=O)c(-c2ccccc2)c(O)c2ccccc21`: the TGI in the assay on SW-620 colon, in the assay with UACC-257 melanoma, in the assay with KM12 colon, in the assay on SNB-19 CNS, with LOX IMVI melanoma and with MALME-3M melanoma was above 100 µM in each case. The TGI with SF-539 CNS, in the assay on SN12C renal, in the assay with RPMI-8226 leukemia and in the assay with COLO 205 colon was above 100 µM each time.

`OB1OCc2ccccc21`: the TGI in the assay on SW-620 colon, in the assay with UACC-257 melanoma, with KM12 colon, with SNB-19 CNS, in the assay on LOX IMVI melanoma and in the assay on MALME-3M melanoma was above 100 µM throughout. Moreover, the TGI in the assay on SF-539 CNS was 64.4 µM; in the assay on SN12C renal it was above 100 µM; in the assay on RPMI-8226 leukemia it was 45.9 µM; with COLO 205 colon it was above 100 µM.

Regarding `O=C1CSC(c2ccc(Cl)cc2)N1c1ccc(-n2c(-c3ccccc3)nc3ccccc3c2=O)cc1` (stereo not given), the TGI in the assay on SW-620 colon, in the assay on UACC-257 melanoma, in the assay on KM12 colon, in the assay on SNB-19 CNS, in the assay with LOX IMVI melanoma and in the assay on MALME-3M melanoma was above 100 µM each time. Also, the TGI with SF-539 CNS, in the assay with SN12C renal, in the assay on RPMI-8226 leukemia and in the assay with COLO 205 colon was above 100 µM throughout.

As to `CN(C)/C=C/c1ccnc2c1C(=O)c1ccccc1C2=O`, the TGI with SW-620 colon is 21.5 µM; in the assay on UACC-257 melanoma it was 6.19 µM; in the assay on KM12 colon, above 64.2 µM; with SNB-19 CNS, 25.6 µM; in the assay with LOX IMVI melanoma, 20.7 µM; in the assay with MALME-3M melanoma, 5.09 µM. The TGI is 39.5 µM with SF-539 CNS, 19.8 µM with SN12C renal, 39.3 µM in the assay with RPMI-8226 leukemia and above 55.1 µM in the assay on COLO 205 colon.

Consider `C[C@H]1C(=O)C2=C[C@H]1CCC(=O)[C@]1(C)CCCC(C)(C)[C@H]1C[C@H]2O`, for which the TGI in the assay with SW-620 colon was 28.2 µM; in the assay on UACC-257 melanoma, 83.6 µM; in the assay with KM12 colon, 52 µM; with SNB-19 CNS, above 100 µM; with LOX IMVI melanoma, 35.4 µM; in the assay on MALME-3M melanoma, 43.5 µM. For the same molecule, the TGI with SF-539 CNS is 28.8 µM; in the assay on SN12C renal it was 94.2 µM; with RPMI-8226 leukemia, 34.2 µM; in the assay on COLO 205 colon, 28.4 µM.

Consider `COc1cccc2c(NNc3ccc(Cl)cc3)c3ccc([N+](=O)[O-])cc3nc12`, for which the TGI in the assay on SW-620 colon is above 100 µM; with UACC-257 melanoma, 55.2 µM; in the assay on KM12 colon, above 100 µM; with SNB-19 CNS, 33.2 µM; in the assay on LOX IMVI melanoma, 36.1 µM; with MALME-3M melanoma, 22 µM. In addition, the TGI in the assay with SF-539 CNS was 33 µM; in the assay on SN12C renal, 75.3 µM; with RPMI-8226 leukemia, above 100 µM; in the assay on COLO 205 colon, 85 µM.

Consider `N#Cc1c(C#N)c(-c2ccco2)n(/N=C/c2ccco2)c1N`, for which the TGI in the assay with SW-620 colon was above 100 µM; in the assay with UACC-257 melanoma, above 100 µM; in the assay with KM12 colon, above 100 µM; in the assay with SNB-19 CNS, 67.5 µM; in the assay on LOX IMVI melanoma it was above 100 µM; in the assay on MALME-3M melanoma, above 100 µM. The TGI in the assay on SF-539 CNS, with SN12C renal, with RPMI-8226 leukemia and with COLO 205 colon was above 100 µM throughout.

For `Cc1ccc(-n2cc(-c3ccc(Cl)cc3)c3c(NNC(=S)NCc4ccccc4)ncnc32)cc1`, the TGI with SW-620 colon was above 100 µM; in the assay with UACC-257 melanoma, 48 µM; with KM12 colon, 20 µM; in the assay with SNB-19 CNS, above 100 µM; in the assay on LOX IMVI melanoma it was 22.8 µM; in the assay with MALME-3M melanoma it was above 100 µM. Moreover, the TGI with SF-539 CNS was 30.7 µM; with SN12C renal, 24.3 µM; in the assay with RPMI-8226 leukemia, above 100 µM; with COLO 205 colon, 27.3 µM.

As to `COC(=O)c1ccc2[nH]c3c(c2c1)CC(=O)Nc1ccccc1-3`, the TGI in the assay with SW-620 colon, in the assay with UACC-257 melanoma, with KM12 colon, in the assay with SNB-19 CNS, in the assay on LOX IMVI melanoma and in the assay on MALME-3M melanoma was above 100 µM each time. The TGI was 5.52 µM with SF-539 CNS, above 100 µM in the assay on SN12C renal, above 100 µM in the assay with RPMI-8226 leukemia and above 100 µM in the assay on COLO 205 colon.

In the case of `O=C(C(=O)n1ccc2ccccc21)c1c[nH]c2ccccc12`, the TGI in the assay with SW-620 colon, in the assay with UACC-257 melanoma, with KM12 colon, in the assay with SNB-19 CNS, with LOX IMVI melanoma and with MALME-3M melanoma was above 10 µM throughout. Further, the TGI in the assay on SF-539 CNS, in the assay on SN12C renal, with RPMI-8226 leukemia and in the assay with COLO 205 colon was above 10 µM each time.

With `COc1cccc(C(=O)C(O)c2cccc(OC)c2OC)c1OC` (stereo not given), the TGI in the assay on SW-620 colon, in the assay on UACC-257 melanoma, with KM12 colon, in the assay with SNB-19 CNS, in the assay on LOX IMVI melanoma and in the assay on MALME-3M melanoma was above 100 µM throughout. Also, the TGI in the assay with SF-539 CNS, in the assay with SN12C renal, with RPMI-8226 leukemia and in the assay on COLO 205 colon was above 100 µM each time.

As to `NC(N)=NS(=O)(=O)c1ccc(NC(=O)c2c3ccccc3nc3ccccc23)cc1`, the TGI with SW-620 colon, with UACC-257 melanoma, with KM12 colon, in the assay with SNB-19 CNS, with LOX IMVI melanoma and in the assay on MALME-3M melanoma was above 100 µM throughout. The TGI in the assay on SF-539 CNS, with SN12C renal, in the assay on RPMI-8226 leukemia and in the assay on COLO 205 colon was above 100 µM throughout.

In the case of `COc1cc(C2c3cc4c(c(O)c3C(=O)C3CCC(=O)N32)OCO4)cc(OC)c1OC` (stereo not given), the TGI in the assay with SW-620 colon, with UACC-257 melanoma, in the assay with KM12 colon, with SNB-19 CNS, in the assay on LOX IMVI melanoma and with MALME-3M melanoma was above 100 µM throughout. Besides, the TGI with SF-539 CNS, in the assay on SN12C renal, in the assay with RPMI-8226 leukemia and in the assay with COLO 205 colon was above 100 µM each time.

In the case of `Cc1ccc(-c2cn3c(nc4ccccc43)c(C)n2)cc1`, the TGI is above 100 µM in the assay with SW-620 colon; above 100 µM in the assay on UACC-257 melanoma; above 100 µM in the assay with KM12 colon; above 100 µM in the assay with SNB-19 CNS; above 100 µM with LOX IMVI melanoma; above 67.8 µM with MALME-3M melanoma. In addition, the TGI in the assay with SF-539 CNS, in the assay with SN12C renal, in the assay with RPMI-8226 leukemia and in the assay with COLO 205 colon was above 100 µM throughout.

For the molecule `CCCCCCc1cc2cc(C(=O)Nc3cccc(C(F)(F)F)c3)c(=N)oc2cc1O`, the TGI in the assay with SW-620 colon is above 46.1 µM; in the assay with UACC-257 melanoma, 8.95 µM; in the assay on KM12 colon it was 10.3 µM; in the assay with SNB-19 CNS it was above 44.3 µM; with LOX IMVI melanoma it was 3.09 µM; with MALME-3M melanoma, 6.2 µM. Besides, the TGI was 3.59 µM in the assay with SF-539 CNS, 3.86 µM with SN12C renal, above 20.3 µM in the assay on RPMI-8226 leukemia and 21 µM in the assay with COLO 205 colon.

Regarding `Clc1ccc(CCN2CCN(CCCc3ccccc3)CC2)cc1Cl`, the TGI in the assay on SW-620 colon stood at 51.6 µM; in the assay with UACC-257 melanoma, 31.3 µM; with KM12 colon, 32.1 µM; in the assay on SNB-19 CNS, 30.8 µM; with LOX IMVI melanoma it was 31.5 µM; in the assay on MALME-3M melanoma, 33.8 µM. Besides, the TGI in the assay with SF-539 CNS was 32.4 µM; with SN12C renal, 29.8 µM; in the assay with RPMI-8226 leukemia, 55.2 µM; in the assay with COLO 205 colon, 31.6 µM.

Turning to `O=C1c2ccccc2C(=O)c2c1c1cc(O)ccc1n2Cc1ccc(Cl)cc1Cl`, the TGI was above 100 µM in the assay on SW-620 colon; 69.9 µM with UACC-257 melanoma; above 100 µM in the assay with KM12 colon; 34.7 µM with SNB-19 CNS; 11.4 µM with LOX IMVI melanoma; 63.9 µM with MALME-3M melanoma. The TGI with SF-539 CNS is 14.7 µM; with SN12C renal, 16.3 µM; in the assay on RPMI-8226 leukemia, 26.7 µM; in the assay with COLO 205 colon, 29.8 µM.

`COc1cc(C=Nc2ccc(Oc3ccc(Cl)cc3)c(Cl)c2)cc(OC)c1OC`: the TGI in the assay on SW-620 colon is above 100 µM; in the assay on UACC-257 melanoma, 47.7 µM; in the assay on KM12 colon, 38.1 µM; with SNB-19 CNS it was 49.1 µM; with LOX IMVI melanoma it was 32.2 µM; in the assay with MALME-3M melanoma it was 35.8 µM. For the same molecule, the TGI in the assay on SF-539 CNS is 35.2 µM; in the assay with SN12C renal, 40.3 µM; with RPMI-8226 leukemia, above 100 µM; with COLO 205 colon, 34 µM.

For `O=C(O)CCCCCNC(=O)CCC(CN(CC(=O)OCc1ccccc1)CC(=O)OCc1ccccc1)N(CC(=O)OCc1ccccc1)CC(=O)OCc1ccccc1` (stereo not given), the TGI in the assay on SW-620 colon was 45.3 µM; in the assay on UACC-257 melanoma, 33.1 µM; in the assay with KM12 colon, 36.9 µM; in the assay with SNB-19 CNS, 32.9 µM; with LOX IMVI melanoma, 38.3 µM; with MALME-3M melanoma it was 39.5 µM. The TGI with SF-539 CNS came to 37.9 µM; with SN12C renal, 36.2 µM; in the assay with RPMI-8226 leukemia, 31.9 µM; in the assay on COLO 205 colon it was 33.7 µM.
